Reference: patent publication EP0938471B1, “THE PREPARATION AND USE OF ORTHO-SULFONAMIDO ARYL HYDROXAMIC ACIDS AS MATRIX METALLOPROTEINASE AND TACE INHIBITORS” (priority 1996, dated 1998)
pIC50: −log10 of the molar value. Counter-ions that a name gives are not always drawn. Like-named read-outs stand apart in the source and are kept apart here.

What was measured:
Type in all cases: biochemical
MMP-1 = target: T1, MMP-1 (Homo sapiens, UniProt P03956); experiment: MMP-1 inhibition (thiopeptide or fluorescent peptide substrate assay); settings: for inhibition at 1 µM: read-out: MMP-1 % inhibition, footnote: 1µM; for pIC50: read-out: MMP-1 IC50; for MMP-1 % inhibition: concentration given as (10), unit not given
T1 sequence (P03956 100-469): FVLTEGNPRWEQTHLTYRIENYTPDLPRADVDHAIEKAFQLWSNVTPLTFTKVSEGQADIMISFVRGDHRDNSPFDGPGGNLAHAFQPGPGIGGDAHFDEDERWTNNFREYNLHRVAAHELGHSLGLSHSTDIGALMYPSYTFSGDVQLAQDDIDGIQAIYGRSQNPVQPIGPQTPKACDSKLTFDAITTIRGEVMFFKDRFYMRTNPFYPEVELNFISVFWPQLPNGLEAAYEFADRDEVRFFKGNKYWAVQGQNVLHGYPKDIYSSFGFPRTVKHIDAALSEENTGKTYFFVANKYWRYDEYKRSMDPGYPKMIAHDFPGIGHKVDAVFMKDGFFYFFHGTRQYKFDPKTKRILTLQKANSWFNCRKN

MMP-9 = MMP-9 (Homo sapiens, UniProt P14780); experiment: MMP-9 inhibition (thiopeptide or fluorescent peptide substrate assay); settings: for pIC50: read-out: MMP-9 IC50; for inhibition at 1 µM: read-out: MMP-9 % inhibition, footnote: 1µM
MMP-9, sequence (P14780 94-707): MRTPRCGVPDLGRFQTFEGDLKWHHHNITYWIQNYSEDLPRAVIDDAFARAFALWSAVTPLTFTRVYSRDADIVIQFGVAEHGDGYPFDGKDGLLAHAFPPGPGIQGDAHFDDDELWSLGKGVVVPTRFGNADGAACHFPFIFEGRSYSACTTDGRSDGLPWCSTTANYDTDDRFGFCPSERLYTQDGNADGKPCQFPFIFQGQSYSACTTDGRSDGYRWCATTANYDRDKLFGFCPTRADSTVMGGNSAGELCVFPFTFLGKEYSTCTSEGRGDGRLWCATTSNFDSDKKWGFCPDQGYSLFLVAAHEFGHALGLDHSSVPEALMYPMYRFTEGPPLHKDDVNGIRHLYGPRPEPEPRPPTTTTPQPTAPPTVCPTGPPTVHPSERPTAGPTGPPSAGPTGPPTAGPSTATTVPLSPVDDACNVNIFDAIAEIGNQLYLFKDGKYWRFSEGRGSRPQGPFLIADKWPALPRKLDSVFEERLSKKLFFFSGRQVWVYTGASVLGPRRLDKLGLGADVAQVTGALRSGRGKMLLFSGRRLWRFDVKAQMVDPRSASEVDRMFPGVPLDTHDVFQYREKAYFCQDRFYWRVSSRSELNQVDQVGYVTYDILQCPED

MMP-13 = MMP-13 (Homo sapiens, UniProt P45452); experiment: MMP-13 inhibition (thiopeptide or fluorescent peptide substrate assay); settings: for inhibition at 1 µM: read-out: MMP-13 % inhibition, footnote: 1µM
Method: The enzyme activity is measured by the rate of the color increase. The thiopeptide substrate is made up fresh as a 20 mM stock in 100% DMSO and the DTNB is dissolved in 100% DMSO as a 100 mM stock and stored in the dark at room temperature. Both the substrate and DTNB are diluted together to 1 mM with substrate buffer (50 mM HEPES pH 7.5, 5 mM CaCl2) before use. […] Alternatively, a fluorescent peptide substrate is used. In this assay, the peptide substrate contains a fluorescent group and a quenching group. Upon cleavage of the substrate by an MMP, the fluorescence that is generated is quantitated on the fluorescence plate reader. […] The substrate is dissolved in methanol and stored frozen in 1 mM aliquots. For the assay, substrate and enzymes are diluted in HCBC buffer to the desired concentrations. Compounds are added to the 96 well plate containing enzyme and the reaction is started by the addition of substrate. […] For either the thiopeptide or fluorescent peptide assays, the slope of the line is calculated and represents the reaction rate. […] The mean (x±sem) of the control rate is calculated and compared for statistical significance (p<0.05) with drug-treated rates using Dunnett's multiple comparison test.

TACE = TACE (Homo sapiens, UniProt P78536); experiment: TACE inhibition (fluorescent peptidyl substrate); settings: for inhibition at 1 µM: at 1µM concentration
TACE, sequence (P78536 215-824): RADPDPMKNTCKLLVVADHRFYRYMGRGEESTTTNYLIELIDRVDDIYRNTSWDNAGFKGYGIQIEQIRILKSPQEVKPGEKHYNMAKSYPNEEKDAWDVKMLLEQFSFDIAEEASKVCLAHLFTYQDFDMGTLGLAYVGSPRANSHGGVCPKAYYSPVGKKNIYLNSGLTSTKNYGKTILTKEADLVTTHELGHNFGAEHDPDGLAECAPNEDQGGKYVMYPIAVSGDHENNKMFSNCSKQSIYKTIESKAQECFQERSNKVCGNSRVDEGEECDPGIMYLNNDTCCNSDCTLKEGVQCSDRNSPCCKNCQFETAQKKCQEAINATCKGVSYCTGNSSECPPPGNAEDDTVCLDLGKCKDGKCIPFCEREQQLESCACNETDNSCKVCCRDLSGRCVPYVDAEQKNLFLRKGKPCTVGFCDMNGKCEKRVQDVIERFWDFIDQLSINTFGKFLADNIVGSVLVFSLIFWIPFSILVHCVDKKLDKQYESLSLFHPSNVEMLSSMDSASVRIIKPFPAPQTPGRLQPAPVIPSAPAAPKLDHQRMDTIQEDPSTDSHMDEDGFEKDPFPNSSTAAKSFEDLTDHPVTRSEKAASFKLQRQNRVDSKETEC
Method: Using 96-well black microtiter plates, each well receives a solution composed of 10 µL TACE (Immunex, final concentration 1µg/mL), 70µL Tris buffer, pH 7.4 containing 10% glycerol (final concentration 10 mM), and 10 µL of test compound solution in DMSO (final concentration 1µM, DMSO concentration <1%) and incubated for 10 minutes at room temperature.
The reaction is read (excitation 340 nm, emission 420 nm) for 10 min. and the increase in fluorescence over time is plotted as a linear line. The slope of the line is calculated and represents the reaction rate.
The linearity of the reaction rate is confirmed (r^2 >0.85). The mean (x±sem) of the control rate is calculated and compared for statistical significance (p<0.05) with drug-treated rates using Dunnett's multiple comparison test.

[1] = concentration given as (.1), unit not given

COc1ccc(S(=O)(=O)N(C)c2c(C)cc(C#Cc3ccc(-c4ccccc4)cc3)cc2C(=O)NO)cc1 [Example 353, 5-Biphenyl-4-ylethynyl-N-hydroxy-2-[(4-methoxy-benzenesulfonyl)-methyl-amino]-3-methyl-benzamide]
inhibition at 1 µM (MMP-1): 23% | pIC50 (MMP-9): 7.21 | pIC50 (MMP-13; read-out: MMP-13 IC50): 6.85 | pIC50 (TACE; read-out: TACE IC50): 6.11

COc1ccc(S(=O)(=O)N(C)c2c(C)cc(CCc3ccc(-c4ccccc4)cc3)cc2C(=O)NO)cc1 [Example 355, 5-(2-Biphenyl-4-yl-ethyl)-N-hydroxy-2-[(4-methoxy-benzenesulfonyl)-methyl-amino]-3-methyl-benzamide]
pIC50 (MMP-1): 6.15 | pIC50 (MMP-9): 7.55 | pIC50 (MMP-13; read-out: MMP-13 IC50): 7.70 | pIC50 (TACE; read-out: TACE IC50): 6.54

CCCCCCCCCCC#Cc1cc(C)c(N(C)S(=O)(=O)c2ccc(OC)cc2)c(C(=O)NO)c1 [Example 358, 5-Dodec-1-ynyl-N-hydroxy-2-[(4-methoxy-benzenesulfonyl)-methyl-amino]-3-methyl-benzamide]
MMP-1 % inhibition (MMP-1): 25%(10) | pIC50 (MMP-9): 7.00 | pIC50 (MMP-13; read-out: MMP-13 IC50): 6.97 | pIC50 (TACE; read-out: TACE IC50): 5.98

CCCCCCCCCCCCc1cc(C)c(N(C)S(=O)(=O)c2ccc(OC)cc2)c(C(=O)NO)c1 [Example 360, 5-Dodecyl-N-hydroxy-2-[(4-methoxy-benzenesulfonyl)-methyl-amino]-3-methyl-benzamide]
MMP-1 % inhibition (MMP-1): 14%(10) | pIC50 (MMP-9): 6.28 | pIC50 (MMP-13; read-out: MMP-13 IC50): 5.90 | pIC50 (TACE; read-out: TACE IC50): 5.85

COCc1cccc(C(=O)NO)c1N(Cc1cccnc1)S(=O)(=O)c1ccc(OC)cc1 [Example 363, N-Hydroxy-2-[(4-methoxy-benzenesulfonyl)-pyridin-3-ylmethyl-amino]-3-methoxymethyl-benzamide]
pIC50 (MMP-1): 6.35 | pIC50 (MMP-9): 7.70 | pIC50 (MMP-13; read-out: MMP-13 IC50): 7.27 | pIC50 (TACE; read-out: TACE IC50): 6.86

COc1ccc(S(=O)(=O)N(Cc2cccnc2)c2c(C(=O)NO)cccc2C(=O)OC(C)(C)C)cc1 [Example 367, N-Hydroxy-2-[(4-methoxy-benzenesulfonyl)-pyridin-3-ylmethyl-amino]-isophthalamic acid tert-butyl ester]
pIC50 (MMP-1): 6.22 | pIC50 (MMP-9): 7.92 | pIC50 (MMP-13; read-out: MMP-13 IC50): 7.89 | pIC50 (TACE; read-out: TACE IC50): 5.57

COC(=O)c1cccc(C(=O)NO)c1N(C)S(=O)(=O)c1ccc(OC)cc1 [Example 373, N-Hydroxy-2-[(4-methoxy-benzenesulfonyl)-methyl-amino]-isophthalamic acid methyl ester]
pIC50 (MMP-1): 5.89 | pIC50 (MMP-9): 7.59 | pIC50 (MMP-13; read-out: MMP-13 IC50): 7.23 | pIC50 (TACE; read-out: TACE IC50): 6.27

COc1ccc(S(=O)(=O)N(Cc2cccnc2)c2c(C(=O)O)cccc2C(=O)NO)cc1 [Example 374, N-Hydroxy-2-[(4-methoxy-benzenesulfonyl)-pyridin-3-ylmethyl-amino]-isophthalamic acid]
MMP-1 % inhibition (MMP-1): 56%(10) | inhibition at 1 µM (MMP-9): 36% | inhibition at 1 µM (MMP-13): 17% | inhibition at 1 µM (TACE): 29%

COc1ccc(S(=O)(=O)N(Cc2ccccn2)c2c(C)cccc2C(=O)NO)cc1 [Example 375, N-Hydroxy-2-[(4-methoxy-benzenesulfonyl)-pyridin-2-ylmethyl-amino]-3-methyl-benzamide]
pIC50 (MMP-1): 6.48 | pIC50 (MMP-9): 8.15 | pIC50 (MMP-13; read-out: MMP-13 IC50): 7.74 | pIC50 (TACE; read-out: TACE IC50): 6.45

COc1ccc(S(=O)(=O)N(Cc2ccncc2)c2c(C)cccc2C(=O)NO)cc1 [Example 376, N-Hydroxy-2-[(4-methoxy-benzenesulfonyl)-pyridin-4-ylmethyl-amino]-3-methyl-benzamide]
pIC50 (MMP-1): 6.41 | pIC50 (MMP-9): 8.08 | pIC50 (MMP-13; read-out: MMP-13 IC50): 7.74 | pIC50 (TACE; read-out: TACE IC50): 6.19

CCN(CC)Cc1ccc(CN(c2c(C)cccc2C(=O)NO)S(=O)(=O)c2ccc(OC)cc2)cc1 [Example 377, 2-[(4-Diethylaminomethyl-benzyl)-(4-methoxy-benzenesulfonyl)-amino]-N-hydroxy-3-methyl-benzamide]
pIC50 (MMP-1): 6.91 | pIC50 (MMP-9): 8.33 | pIC50 (MMP-13; read-out: MMP-13 IC50): 7.82 | pIC50 (TACE; read-out: TACE IC50): 6.59

COc1ccc(S(=O)(=O)N(Cc2ccc(CN(C)C)cc2)c2c(C)cccc2C(=O)NO)cc1 [Example 378, 2-[(4-Dimethylaminomethyl-benzyl)-(4-methoxy-benzenesulfonyl)-amino]-N-hydroxy-3-methyl-benzamide]
pIC50 (MMP-1): 6.67 | pIC50 (MMP-9): 8.54 | pIC50 (MMP-13; read-out: MMP-13 IC50): 7.96 | pIC50 (TACE; read-out: TACE IC50): 6.61

CCN(CC)CC#CCN(c1c(C)cccc1C(=O)NO)S(=O)(=O)c1ccc(OC)cc1 [Example 381, 2-[(4-Diethylamino-but-2-ynyl)-(4-methoxy-benzenesulfonyl)-amino]-N-hydroxy-3-methyl-benzamide]
pIC50 (MMP-1): 6.33 | pIC50 (MMP-9): 7.96 | pIC50 (MMP-13; read-out: MMP-13 IC50): 7.72 | pIC50 (TACE; read-out: TACE IC50): 6.66

CCOC(=O)CCCN(c1c(C)cccc1C(=O)NO)S(=O)(=O)c1ccc(OC)cc1 [Example 383, 4-[(2-Hydroxycarbamoyl-6-methyl-phenyl)-(4-methoxy-benzenesulfonyl)-amino]-butyric acid ethyl ester]
inhibition at 1 µM (MMP-1): 34% | inhibition at 1 µM (MMP-9): 87% | inhibition at 1 µM (MMP-13): 48% | inhibition at 1 µM (TACE): 45%

CCOC(=O)CCCCN(c1c(C)cccc1C(=O)NO)S(=O)(=O)c1ccc(OC)cc1 [Example 384, 5-[(2-Hydroxycarbamoyl-6-methyl-phenyl)-(4-methoxy-benzenesulfonyl)-amino]-pentanoic acid ethyl ester]
inhibition at 1 µM (MMP-1): 48% | inhibition at 1 µM (MMP-9): 52% | inhibition at 1 µM (MMP-13): 61% | inhibition at 1 µM (TACE): 55%

COc1ccc(S(=O)(=O)N(CC(=O)OCc2ccccc2)c2c(C)cccc2C(=O)NO)cc1 [Example 385, [(2-Hydroxycarbamoyl-6-methyl-phenyl)-(4-methoxy-benzenesulfonyl)-amino]-acetic acid benzyl ester]
inhibition at 1 µM (MMP-1): 25% | inhibition at 1 µM (MMP-9): 65% | inhibition at 1 µM (MMP-13): 66% | inhibition at 1 µM (TACE): 56%

COc1ccc(S(=O)(=O)N(CC(=O)NCc2ccccn2)c2c(C)cccc2C(=O)NO)cc1 [Example 386, N-Hydroxy-2-[[(4-methoxyphenyl)sulfonyl][2-oxo-2-[(2-pyridinylmethyl)amino]ethyl]amino]-3-methylbenzamide]
inhibition at 1 µM (MMP-1): 21% | MMP-9 % inhibition (MMP-9; [1]): 16%(.1) | MMP-13 % inhibition (MMP-13; [1]): 11%(.1) | inhibition at 1 µM (TACE): 46%

COc1ccc(S(=O)(=O)N(CC(=O)N2CCN(C)CC2)c2c(C)cccc2C(=O)NO)cc1 [Example 387, N-Hydroxy-2-{(4-methoxy-benzenesulfonyl)-[2-(4-methyl-piperazin-1-yl)-2-oxo-ethyl]-amino}-3-methyl-benzamide]
pIC50 (MMP-1): 5.57 | pIC50 (MMP-9): 7.02 | pIC50 (MMP-13; read-out: MMP-13 IC50): 6.51 | inhibition at 1 µM (TACE): 38%

COc1ccc(S(=O)(=O)N(CCO)c2c(C)cccc2C(=O)NO)cc1 [Example 388, N-Hydroxy-2-[(2-hydroxy-ethyl)-(4-methoxy-benzenesulfonyl)-amino]-3-methyl-benzamide]
MMP-1 % inhibition (MMP-1): 66%(10) | inhibition at 1 µM (MMP-9): 47% | inhibition at 1 µM (MMP-13): 39% | inhibition at 1 µM (TACE): 35%

COc1ccc(S(=O)(=O)N(Cc2ccccc2)c2c(C)cc(N(C)C)cc2C(=O)NO)cc1 [Example 389, 2-[Benzyl-(4-methoxy-benzenesulfonyl)-amino]-5-dimethylamino-N-hydroxy-3-methyl-benzamide]
pIC50 (MMP-1): 7.20 | pIC50 (MMP-9): 8.70 | pIC50 (MMP-13; read-out: MMP-13 IC50): 7.41 | pIC50 (TACE; read-out: TACE IC50): 6.20

COc1ccc(S(=O)(=O)N(Cc2ccc(OCCN3CCCCC3)cc2)c2c(C)cccc2C(=O)NO)cc1 [Example 393, N-Hydroxy-2-[[(4-methoxyphenyl)sulfonyl][[4-[2-(1-piperidinyl)ethoxy]phenyl]methyl]amino]-3-methylbenzamide]
pIC50 (MMP-1): 6.75 | pIC50 (MMP-9): 8.16 | pIC50 (MMP-13): 7.25 | pIC50 (TACE): 6.56

CCN(CC)CCOc1ccc(CN(c2c(C)cccc2C(=O)NO)S(=O)(=O)c2ccc(OC)cc2)cc1 [Example 394, 2-[[4-(2-Diethylamino-ethoxy)-benzyl]-(4-methoxy-benzenesulfonyl)-amino]-N-hydroxy-3-methyl-benzamide]
pIC50 (MMP-1): 7.02 | pIC50 (MMP-9): 8.64 | pIC50 (MMP-13; read-out: MMP-13 IC50): 8.06 | pIC50 (TACE; read-out: TACE IC50): 6.67

COc1ccc(S(=O)(=O)N(Cc2ccc(OCCN3CCCCC3)cc2)c2c(C)cc(Br)cc2C(=O)NO)cc1 [Example 395, 5-Bromo-N-hydroxy-2-{(4-methoxy-benzenesulfonyl)-[4-(2-piperidin-1-yl-ethoxy)-benzyl]-amino}-3-methyl-benzamide]
pIC50 (MMP-1): 7.46 | pIC50 (MMP-9): 8.64 | pIC50 (MMP-13; read-out: MMP-13 IC50): 8.51 | pIC50 (TACE; read-out: TACE IC50): 6.97

COc1ccc(S(=O)(=O)N(Cc2ccc(C(=O)NCCN3CCCCC3)cc2)c2c(C)cccc2C(=O)NO)cc1 [Example 396]
pIC50 (MMP-1): 6.74 | pIC50 (MMP-9): 8.20 | pIC50 (MMP-13; read-out: MMP-13 IC50): 7.46 | pIC50 (TACE; read-out: TACE IC50): 6.44

COc1ccc(-c2ccc(-c3cc(C)c(N(Cc4cccnc4)S(=O)(=O)c4ccc(OC)cc4)c(C(=O)NO)c3)cc2)cc1 [Example 399, 4"-Methoxy-4-[(4-methoxy-benzenesulfonyl)-pyridin-3-ylmethyl-amino]-5-methyl-[1,1';4',1"]terphenyl-3-carboxylic acid hydroxyamide hydrochloride salt]
pIC50 (MMP-1): 5.66 | pIC50 (MMP-9): 7.35 | pIC50 (MMP-13; read-out: MMP-13 IC50): 7.39 | inhibition at 1 µM (TACE): 25%
